Assay results reported in patent publication US12077503B2, “Substituted cyclic amides and their use as herbicides” (FMC CORPORATION, priority 2015, dated 2024).

Columns and labels:
Format in all cases: in vivo
rice (Oryra sativa) = test: Test B flooded paddy test; settings: Oryza sativa, 250 g ai/ha, Flood; 0 to 100 scale where 0 is no effect and 100 is complete control; read-out: Rice plant response rating
Method in brief: (§1)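 Rating scale 0–100 (visual, vs untreated controls) after a 13–15 d greenhouse period; application to the flood layer, 3 cm above soil and maintained; plants at 2-leaf stage when treated.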

[1] = system: sedge, umbrella (small-flower umbrella sedge, Cyperus difformis); test: Test B flooded paddy test; settings: Cyperus difformis, 250 g ai/ha, Flood; 0 to 100 scale where 0 is no effect and 100 is complete control; read-out: Sedge, Umbrella plant response rating
Method in brief: as §1

[2] = system: ducksalad (Heteranthera limosa); test: Test B flooded paddy test; settings: Heteranthera limosa, 250 g ai/ha, Flood; 0 to 100 scale where 0 is no effect and 100 is complete control; read-out: Ducksalad plant response rating
Method in brief: as §1

[3] = system: barnyardgrass (Echinochloa crus-galli); test: Test B flooded paddy test; settings: Echinochloa crus-galli, 250 g ai/ha, Flood; 0 to 100 scale where 0 is no effect and 100 is complete control; read-out: Barnyardgrass plant response rating
Method in brief: as §1

[4] = system: giant foxtail (Setaria faberii); test: Test A preemergence; settings: Setaria faberi, pre-emergence, 240 h, 0 to 100 scale where 0 is no effect and 100 is complete control, read-out: Foxtail, Giant plant response rating; for pest or weed control at 31 g/ha: 31 g ai/ha, Preemergence; for pest or weed control at 125 g/ha: 125 g ai/ha, preemergence, approx. 10 d
Method in brief: (§2)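 Visual injury, scored on a 0–100 scale relative to untreated controls, was recorded about 10 d after application. Treatments were a preemergence soil spray over planted seeds or a postemergence spray on plants at the one- to two-leaf stage, 2 to 10 cm tall, all in loam soil–sand blend in the greenhouse.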

[5] = system: ryegrass, Italian (Italian ryegrass, Lolium multiflorum); test: Test A preemergence; settings: Lolium multiflorum, pre-emergence, 240 h, 0 to 100 scale where 0 is no effect and 100 is complete control, read-out: Ryegrass, Italian plant response rating; for pest or weed control at 31 g/ha: 31 g ai/ha, Preemergence; for pest or weed control at 125 g/ha: 125 g ai/ha, preemergence, approx. 10 d
Method in brief: as §2

[6] = system: ragweed (common ragweed, Ambrosia elatior); test: Test A preemergence; settings: Ambrosia artemisiifolia, pre-emergence, 240 h, 0 to 100 scale where 0 is no effect and 100 is complete control, read-out: Ragweed plant response rating; for pest or weed control at 31 g/ha: 31 g ai/ha, Preemergence; for pest or weed control at 125 g/ha: 125 g ai/ha, preemergence, approx. 10 d
Method in brief: as §2

[7] = system: pigweed (Amaranthus retroflexus); test: Test A preemergence; settings: Amaranthus retroflexus, pre-emergence, 240 h, 0 to 100 scale where 0 is no effect and 100 is complete control, read-out: Pigweed plant response rating; for pest or weed control at 31 g/ha: 31 g ai/ha, Preemergence; for pest or weed control at 125 g/ha: 125 g ai/ha, preemergence, approx. 10 d
[8] = system: barnyardgrass (Echinochloa crus-galli); test: Test A preemergence; settings: Echinochloa crus-galli, pre-emergence, 240 h, 0 to 100 scale where 0 is no effect and 100 is complete control, read-out: Barnyardgrass plant response rating; for pest or weed control at 31 g/ha: 31 g ai/ha, Preemergence; for pest or weed control at 125 g/ha: 125 g ai/ha, preemergence, approx. 10 d
Method in brief: as §2

Kochia (Kochia scoparia) [9] = test: Test A preemergence; settings: Bassia scoparia, pre-emergence, 240 h, 0 to 100 scale where 0 is no effect and 100 is complete control, read-out: Kochia plant response rating; for pest or weed control at 31 g/ha: 31 g ai/ha, Preemergence; for pest or weed control at 125 g/ha: 125 g ai/ha, preemergence, approx. 10 d
Method in brief: as §2

[10] = system: giant foxtail (Setaria faberii); test: Test A postemergence; settings: Setaria faberi, post-emergence, 240 h; for pest or weed control at 125 g/ha: 125 g ai/ha, postemergence, visual injury vs untreated controls after approx. 10 d, 0 = no effect, 100 = complete control, read-out: Foxtail, Giant plant response rating (0 to 100 scale); for pest or weed control at 31 g/ha: Postemergence, 31 g ai/ha, visual injury after approx. 10 d, 0 to 100 scale, 0 no effect, 100 complete control, read-out: Plant response rating, Foxtail, Giant
Method in brief: as §2

[11] = system: wheat (Triticum aestivum); test: Test A postemergence; settings: Triticum aestivum, post-emergence, 240 h, 125 g ai/ha, postemergence, visual injury vs untreated controls after approx. 10 d; 0 = no effect, 100 = complete control; read-out: Wheat plant response rating (0 to 100 scale)
Method in brief: as §2

[12] = system: ryegrass, Italian (Italian ryegrass, Lolium multiflorum); test: Test A postemergence; settings: Lolium multiflorum, post-emergence, 240 h, 125 g ai/ha, postemergence, visual injury vs untreated controls after approx. 10 d; 0 = no effect, 100 = complete control; read-out: Ryegrass, Italian plant response rating (0 to 100 scale)
Method in brief: as §2

[13] = system: Galium (catchweed bedstraw, Galium aparine); test: Test A postemergence; settings: Galium, post-emergence, 240 h; for pest or weed control at 125 g/ha: 125 g ai/ha, postemergence, visual injury vs untreated controls after approx. 10 d, 0 = no effect, 100 = complete control, read-out: Galium plant response rating (0 to 100 scale); for pest or weed control at 31 g/ha: Postemergence, 31 g ai/ha, visual injury after approx. 10 d, 0 to 100 scale, 0 no effect, 100 complete control, read-out: Plant response rating, Galium
Method in brief: as §2

corn (Zea mays) = test: Test A postemergence; settings: Zea mays, post-emergence, 240 h; for plant injury at 125 g/ha: 125 g ai/ha, postemergence, visual injury vs untreated controls after approx. 10 d, 0 = no effect, 100 = complete control, read-out: Corn plant response rating (0 to 100 scale); for Corn plant response rating (crop injury, 0 = no effect, 100 = complete kill) at 31 g/ha: Postemergence, 31 g ai/ha, visual injury after approx. 10 d, 0 to 100 scale, 100 complete control
Method in brief: as §2

[14] = system: ragweed (common ragweed, Ambrosia elatior); test: Test A postemergence; settings: Ambrosia artemisiifolia, post-emergence, 240 h, 125 g ai/ha, postemergence, visual injury vs untreated controls after approx. 10 d; 0 = no effect, 100 = complete control; read-out: Ragweed plant response rating (0 to 100 scale)
Method in brief: as §2

[15] = system: pigweed (Amaranthus retroflexus); test: Test A postemergence; settings: Amaranthus retroflexus, post-emergence, 240 h, 125 g ai/ha, postemergence, visual injury vs untreated controls after approx. 10 d; 0 = no effect, 100 = complete control; read-out: Pigweed plant response rating (0 to 100 scale)
Method in brief: as §2

[16] = system: barnyardgrass (Echinochloa crus-galli); test: Test A postemergence; settings: Echinochloa crus-galli, post-emergence, 240 h; for pest or weed control at 125 g/ha: 125 g ai/ha, postemergence, visual injury vs untreated controls after approx. 10 d, 0 = no effect, 100 = complete control, read-out: Barnyardgrass plant response rating (0 to 100 scale); for pest or weed control at 31 g/ha: Postemergence, 31 g ai/ha, visual injury after approx. 10 d, 0 to 100 scale, 0 no effect, 100 complete control, read-out: Plant response rating, Barnyardgrass
Method in brief: as §2

[17] = system: blackgrass (Alopecurus myosuroides); test: Test A postemergence; settings: Alopecurus myosuroides, post-emergence, 240 h; for pest or weed control at 125 g/ha: 125 g ai/ha, postemergence, visual injury vs untreated controls after approx. 10 d, 0 = no effect, 100 = complete control, read-out: Blackgrass plant response rating (0 to 100 scale); for pest or weed control at 31 g/ha: Postemergence, 31 g ai/ha, visual injury after approx. 10 d, 0 to 100 scale, 0 no effect, 100 complete control, read-out: Plant response rating, Blackgrass
Method in brief: as §2

Kochia (Kochia scoparia) [18] = test: Test A postemergence; settings: Bassia scoparia, post-emergence, 240 h; for pest or weed control at 31 g/ha: Postemergence, 31 g ai/ha, visual injury after approx. 10 d, 0 to 100 scale, 0 no effect, 100 complete control, read-out: Plant response rating, Kochia
Method in brief: as §2

Row | Structure (SMILES) | pest or weed control at 250 g/ha (rice (Oryra sativa)) [%] | pest or weed control at 250 g/ha [1] [%] | pest or weed control at 250 g/ha [2] [%] | pest or weed control at 250 g/ha [3] [%] | pest or weed control at 31 g/ha [4] [%] | pest or weed control at 125 g/ha [4] [%] | pest or weed control at 31 g/ha [5] [%] | pest or weed control at 125 g/ha [5] [%] | pest or weed control at 31 g/ha [6] [%] | pest or weed control at 125 g/ha [6] [%] | pest or weed control at 31 g/ha [7] [%] | pest or weed control at 125 g/ha [7] [%] | pest or weed control at 31 g/ha [8] [%] | pest or weed control at 125 g/ha [8] [%] | pest or weed control at 31 g/ha (Kochia (Kochia scoparia) [9]) [%] | pest or weed control at 125 g/ha (Kochia (Kochia scoparia) [9]) [%] | pest or weed control at 125 g/ha [10] [%] | pest or weed control at 31 g/ha [10] [%] | plant injury at 125 g/ha [11] [%] | pest or weed control at 125 g/ha [12] [%] | further results
1 | CON1CC[C@H](c2cccc(C(F)(F)F)c2)[C@@H](C(=O)Nc2cccc(F)c2F)C1=O [Compound 1169] | 0 | 0 | 0 | 0 | 70 | 90 | 0 | 0 | 0 | 0 | 0 | 0 | 70 | 90 | 30 | 30 | 70 | 30 | 0 | 0 | pest or weed control at 125 g/ha [13]: 0%; pest or weed control at 31 g/ha [13]: 0%; plant injury at 125 g/ha (corn (Zea mays)): 0%; Corn plant response rating (crop injury, 0 = no effect, 100 = complete kill) at 31 g/ha (corn (Zea mays)): 0%; pest or weed control at 125 g/ha [14]: 0%; pest or weed control at 125 g/ha [15]: 0%; pest or weed control at 125 g/ha [16]: 80%; pest or weed control at 31 g/ha [16]: 30%; pest or weed control at 125 g/ha [17]: 0%; pest or weed control at 31 g/ha [17]: 0%; pest or weed control at 125 g/ha (Kochia (Kochia scoparia) [18]; 125 g ai/ha, postemergence, visual injury vs untreated controls after approx. 10 d, 0 = no effect, 100 = complete control, read-out: Kochia plant response rating (0 to 100 scale)): 20%; pest or weed control at 31 g/ha (Kochia (Kochia scoparia) [18]): 0%
2 | CON1CC[C@H](c2cccc(C(F)(F)F)c2)[C@@H](C(=O)Nc2ccc(F)c(F)c2F)C1=O [Compound 1170] | 0 | 0 | 40 | 30 | 0 | 70 | 0 | 0 | 0 | 0 | 0 | 0 | 0 | 40 | 0 | 0 | 60 | 0 | 0 | 0 | pest or weed control at 125 g/ha [13]: 30%; pest or weed control at 31 g/ha [13]: 20%; plant injury at 125 g/ha (corn (Zea mays)): 0%; Corn plant response rating (crop injury, 0 = no effect, 100 = complete kill) at 31 g/ha (corn (Zea mays)): 0%; pest or weed control at 125 g/ha [14]: 0%; pest or weed control at 125 g/ha [15]: 0%; pest or weed control at 125 g/ha [16]: 60%; pest or weed control at 31 g/ha [16]: 0%; pest or weed control at 125 g/ha [17]: 20%; pest or weed control at 31 g/ha [17]: 0%; pest or weed control at 31 g/ha (Kochia (Kochia scoparia) [18]): 0%
